{
  "source": "patent US20090155828A1",
  "about": "“METHODS OF DETECTING PROSTATE CANCER” (The Burnham Institute for Medical Research, priority 2001, published 2009)",
  "key": {"[1]": {"test_system": "non-DPP proteins (other serine hydrolase activity)", "experiment": "Specificity of IT: fp-PEG-Tamra labeling of non-DPP serine hydrolases in prostate cancer cell lysates", "format": "biochemical, human", "details": "soluble fractions of LNCaP, DU-145, PC-3, 100 TM IT", "protocol": "(§1) . Each lysate was pre-incubated with 100 TM IT for 20 min at RT. Residual DPP-like activity was evaluated by treatment with 2 TM fp-PEG-Tamma, as described above, followed by resolution with 10% SDS-PAGE and comparison to samples not treated with IT. Inhibition of DPP activity was quantified by measuring the fluorescence intensity of the conjugate between fp-PEG-TAMRA and the DPP. The activity of a non-DPP enzyme was used to standardize the specific effects if IT.\n(§2) One member of this family, DPP-IV, has been investigated as a target in type II diabetes. As a result of those investigations, several peptidic antagonists of DPP IV have been synthesized (Pederson et al., Diabetes 47:1253-58; 1998; Pauly et al., Metabolism 48(3):385-389, 1999). […]. The sensitivity of enzyme activity to IT was tested in the soluble fractions of the LNCaP, DU-145, and PC-3 prostate cancer cells lines. Each lysate was pre-incubated with 100 TM IT for 20 min at RT. Residual DPP-like activity was evaluated by the addition of 2 TM fp-PEG-Tamra, followed by resolution with 10% SDS-PAGE and comparison to the non-treated samples. […]. […] Specific labeling was determined by comparison to preheated controls.\nIn each of the three prostate cancer cell lines, a novel protein with homology to DPP was identified using MS/MS. […]"}, "[2]": {"test_system": "DPP-like activity in LNCaP soluble fraction", "experiment": "Inhibition of DPP-like activity with isoleucine thiozolidide, fp-PEG-Tamra labeling, LNCaP soluble fraction", "format": "biochemical, human", "details": "for Reaction of fp-PEG-Tamra probe with DPP-like protein (words): LNCaP lysate preincubated with IT, 97 kDa band", "protocol": "as §1, §2\nIn each of the three prostate cancer cell lines, a novel protein with homology to DPP was identified using MS/MS. The similarity to DPP was based on fold and function assignment of the corresponding cDNA and its cognate protein (Zhang et al., Prot. Sci. 8:1104-1115, 1999). […]."}, "tumor cells in culture": {"test_system": "tumor cells in culture", "details": "cited from earlier work; for Apoptosis of tumor cells: tumor / cancer cells in culture"}, "tumor growth": {"test_system": "tumor growth", "details": "cited from earlier work"}, "[3]": {"test_system": "fatty acid synthase (FAS)", "experiment": "Fatty acid synthase activity in DHT treated LNCaP cells, fp-PEG-Tamra profile", "format": "cell-based, human", "details": "six days", "protocol": "(§3) Serine hydrolase activity profiles of the prostate cell lines were measured using the labeled fluorophosphonate probe fp-PEG-Tamra. Briefly, 40 μg of either the soluble or insoluble fractions were treated with 2 μM fp-PEG-Tamra for 1 hr at RT. The labeling reactions were stopped by the addition of Laemmli buffer followed by boiling for 5 min. As a control for non-specific reaction of the probe, a duplicate sample was boiled for 10 min prior to labeling with fp-PEG-Tamra. The labeled samples were resolved by 10% SDS-PAGE and visualized by scanning with a laser at 605 nm.\n(§4) It is well established that androgen (DHT) specifically, promotes proliferation of LNCaP cells in vitro. While the direct cause for this is not completely understood, it is clear that changes in gene and protein levels are associated with proliferation. As such, it was hypothesized that androgen treatment of LNCaP cells would change the aggregate activity profile. […] LNCaP cell proliferation was measured in the presence of either 0.1 nM or 100 nM DHT. […] Cells were counted using a hemocytometer. On day six, the aggregate serine hydrolase activity profiles were also measured. […] Specific labeling was assessed by comparison to a preheated control."}, "PEP mRNA": {"test_system": "PEP mRNA", "experiment": "PEP mRNA level in DHT treated LNCaP cells by real time PCR", "format": "cell-based, human", "details": "100 nM DHT", "protocol": "(§5) The serine hydrolase activity levels in the four prostate cell lines, or the change in serine hydrolase activity with DHT treatment, as assessed by fp-PEG-Tamra, was compared to the mRNA level of the cognate enzymes. Total RNA was isolated with Trizol (Life Technologies) from LNCaP, LNCaP treated with DHT, DU-145, PC-3 or PrEC cell lines. Reverse transcription was performed with Superscript II. Real time PCR was performed using the Roche SYBER Green DNA kit and a Roche LightCycler according to manufacturer instructions. Primers (20mers) were used at a final concentration of […], and 45 cycles were used."}, "[4]": {"test_system": "N-acyl peptide hydrolase (NAPH)", "experiment": "N-acyl peptide hydrolase activity in DHT treated LNCaP cells, fp-PEG-Tamra profile", "format": "cell-based, human", "details": "100 nM DHT, six days", "protocol": "as §3, §4"}, "PSA mRNA": {"test_system": "PSA mRNA", "experiment": "PSA mRNA level in DHT treated LNCaP cells by real time PCR", "format": "cell-based, human", "protocol": "as §5"}, "LNCaP cells": {"test_system": "LNCaP cells", "experiment": "Androgen effects on LNCaP cell proliferation", "format": "cell-based, human", "details": "six days", "protocol": "LNCaP cell proliferation was measured in the presence of either 0.1 nM or 100 nM DHT. Cells were plated in 24 well plates in RPMI 1640 with no phenol red and supplemented with charcoal stripped FBS and allowed to adhere overnight. The following day media was replaced, with or without DHT, and cells were grown for six days with media change every second day. Cells were counted using a hemocytometer.\nIn order to assess the effects of androgen (DHT) treatment on cell proliferation, LNCaP cells were plated in either 150 mm dishes (Falcon) or in 12 well tissue culture plates (Falcon) in complete medium. After 24 hr, the medium was replaced with RPMI containing no phenol red and supplemented with 10% charcoal stripped fetal bovine serum and the appropriate concentration of DHT. The medium was replaced every 48 hr for six days. At the indicated time points, the cells were removed by treatment with trypsin-EDTA and counted with a hemocytometer.\nIt is well established that androgen (DHT) specifically, promotes proliferation of LNCaP cells in vitro. […] LNCaP cell proliferation was measured in the presence of either 0.1 nM or 100 nM DHT. […] Cells were counted using a hemocytometer. On day six, the aggregate serine hydrolase activity profiles were also measured. […] Specific labeling was assessed by comparison to a preheated control."}, "NAPH mRNA": {"test_system": "NAPH mRNA", "experiment": "NAPH mRNA level in DHT treated LNCaP cells by real time PCR", "format": "cell-based, human", "details": "100 nM DHT", "protocol": "as §5"}, "PSA": {"test_system": "PSA", "experiment": "PSA activity in DHT treated LNCaP cells, fp-PEG-Tamra profile", "format": "cell-based, human", "details": "six days", "protocol": "as §3, §4"}, "[5]": {"test_system": "prolyl endopeptidase (PEP)", "experiment": "Prolyl endopeptidase activity in DHT treated LNCaP cells, fp-PEG-Tamra profile", "format": "cell-based, human", "details": "six days", "protocol": "as §3, §4"}, "[6]": {"details": "listed as isoleucine thiazolidide"}},
  "note": "“Also recorded” adds a separate entry of the source.",
  "data": [
    {"smiles": "CC[C@H](C)[C@H](N)C(=O)N1CCSC1", "note": "[IT, isoleucine thiazolidide]", "values": [
      {"measurement": "Inhibition of non-DPP proteins / other serine hydrolase activity", "setting": "[1]", "result": "No inhibition; also recorded: no other serine hydrolase activity was reduced"},
      {"measurement": "Inhibition of non-DPP proteins / other serine hydrolase activity", "setting": "[1]; [6]", "result": "No other enzyme activities were inhibited"},
      {"measurement": "Reaction of fp-PEG-Tamra probe with DPP-like protein (words)", "setting": "[2]", "result": "inhibited"},
      {"measurement": "Reaction of fp-PEG-Tamra probe with DPP-like protein (words)", "setting": "[2]; [6]", "result": "dramatically reduced"},
      {"measurement": "DPP-like activity inhibited", "setting": "[2]; LNCaP soluble fraction, pre-incubated with 100 TM IT 20 min RT, 2 TM fp-PEG-Tamra", "result": 63, "unit": "%"}
    ]},
    {"smiles": "C=C1C(=O)OC(CCCCCCCC)C1C(=O)O", "note": "(centres unmarked) [Compound C75]", "values": [
      {"measurement": "Cytotoxicity to cancer cells", "setting": "tumor cells in culture", "result": "cytotoxic"},
      {"measurement": "Apoptosis of tumor cells", "setting": "tumor cells in culture", "result": "in some cases induce apoptosis"}
    ]},
    {"smiles": "C/C=C/C/C=C/CCC(=O)[C@H]1O[C@H]1C(N)=O", "note": "[cerulenin]", "values": [
      {"measurement": "Tumor growth in nude mice", "setting": "tumor growth", "result": "inhibit tumor growth"},
      {"measurement": "Cytotoxicity to cancer cells", "setting": "tumor cells in culture", "result": "cytotoxic"},
      {"measurement": "Apoptosis of tumor cells", "setting": "tumor cells in culture", "result": "induces apoptosis; also recorded: in some cases induce apoptosis"}
    ]},
    {"smiles": "C[C@]12CCC(=O)C[C@@H]1CC[C@@H]1[C@@H]2CC[C@]2(C)[C@@H](O)CC[C@@H]12", "note": "[DHT]", "values": [
      {"measurement": "Change of FAS activity", "setting": "[3]; 0.1 nM DHT", "result": "increased three-fold to five-fold"},
      {"measurement": "Change of FAS activity", "setting": "[3]; 100 nM DHT", "result": "increased"},
      {"measurement": "Change of PEP mRNA level", "setting": "PEP mRNA", "result": "increased"},
      {"measurement": "Change of NAPH activity", "setting": "[4]", "result": "dramatic drop"},
      {"measurement": "Change of PSA mRNA level", "setting": "PSA mRNA; 0.1 nM DHT, six days", "result": "increased over eleven-fold"},
      {"measurement": "Change of PSA mRNA level", "setting": "PSA mRNA; 100 nM DHT", "result": "large increase"},
      {"measurement": "LNCaP cell proliferation", "setting": "LNCaP cells; 0.1 nM DHT", "result": "promoted cell proliferation"},
      {"measurement": "LNCaP cell proliferation", "setting": "LNCaP cells; 100 nM DHT", "result": "cell proliferation was inhibited"},
      {"measurement": "Change of NAPH mRNA level", "setting": "NAPH mRNA", "result": "slightly greater than two-fold"},
      {"measurement": "Change of PSA activity", "setting": "PSA; 0.1 nM DHT", "result": "no noticeable change"},
      {"measurement": "Change of PSA activity", "setting": "PSA; 100 nM DHT", "result": "increased"},
      {"measurement": "Change of PEP activity", "setting": "[5]; 0.1 nM DHT", "result": "decreased"},
      {"measurement": "Change of PEP activity", "setting": "[5]; 100 nM DHT", "result": "dramatic drop"}
    ]}
  ]
}
